Measured values: patent publication US20100074934A1, “MEDICAL IMPLANTS WITH A COMBINATION OF COMPOUNDS” (priority 2006, published 2010)

System: chick chorioallantoic membrane (CAM)
Experiment: chick chorioallantoic membrane (CAM) assay, inhibition of angiogenesis
Type: in vivo
Design: key: 0: normal vascularity; 1: lacking some microvascular movement; small avascular zone approximately 2 mm in diameter; 3: avascularity extending beyond the disk (6 mm in diameter)
Settings: 2 day exposure
Description: Paclitaxel, dipyridamole, and a combination of paclitaxel and dipyridimole were tested in a chick chorioallantoic membrane (CAM) assay (A. Cevik Tufan and N. Lalae Satirglu-Tufanm Current Cancer Drug Targets, 2005, 5: 249-266) to measure inhibition of angiogenesis by the compounds.
Fertilized, domestic chick embryos were incubated for 4 days prior to shell-less culturing. In this procedure, the egg contents were emptied by cracking the shell, and allowing the contents of the egg to gently slide out. The egg contents were emptied into sterilized petri dishes and then covered with petri dish covers. These were then placed into an incubator at 37 degrees and 90% relative humidity for 4 days.
Paclitaxel (Hauser Lot 1492-16199A) was fixed at concentrations of 0.3 μg and 1 μg per 10 ul aliquot of 0.5% aqueous methylcellulose (disc). Dipyridamole (Aldrich 285676, Lot 064K157) was added to each fixed dose of paclitaxel at specific molar ratios of 1:3, 1:10, 1:1, 3:1, 10:1. Neat solvent (DMSO), paclitaxel at 0.3 μg and 1 μg per disc and the dipyridamole at 5.92 μg per disc were used as the individual controls. Ten microliter aliquots of this solution were dried on parafilm for 3 hours forming disks 2 mm in diameter. The dried disks containing the combination ratios and controls were then carefully placed at the growing edge of each CAM at day 7 of incubation. After a 2 day exposure ([…]) the vasculature was examined with the aid of a stereomicroscope. Liposyn II, a white opaque solution, was injected into the CAM to increase the visibility of the vascular details.
This imaging setup was used at a magnification of 160× which permitted the direct visualization of blood cells within the capillaries; thereby blood flow in areas of interest may be easily assessed and recorded. For this study, the inhibition of angiogenesis was defined as an area of the CAM (measuring 2-6 mm in diameter) lacking a capillary network and vascular blood flow. Throughout the experiments, avascular zones were assessed on a 4 point avascular gradient (Table 1). This scale represents the degree of overall inhibition with maximal inhibition represented as a 3 on the avascular gradient scale.

OCCN(CCO)c1nc(N2CCCCC2)c2nc(N(CCO)CCO)nc(N3CCCCC3)c2n1 [Dipyridamole (control), 2,6-bis(diethanolamino)-4,8-dipiperidinopyrimido(5,4-d) pyrimidine]
Score (avascular gradient scale) (dipyridamole 0.02 μg/10 μL disc alone): 0 | Score (avascular gradient scale) (dipyridamole 0.06 μg/10 μL disc alone): 0 | Score (avascular gradient scale) (dipyridamole 5.92 μg/10 μL disc alone): 0

CC(=O)O[C@H]1C(=O)[C@@]2(C)[C@H]([C@H](OC(=O)c3ccccc3)[C@]3(O)C[C@H](OC(=O)[C@H](O)[C@@H](NC(=O)c4ccccc4)c4ccccc4)C(C)=C1C3(C)C)[C@]1(OC(C)=O)CO[C@@H]1C[C@@H]2O [Paclitaxel (control), paclitaxel]
Score (avascular gradient scale) (paclitaxel 1 μg/10 μL disc alone): 2
